Reference: ChEMBL document CHEMBL4715724, “Novel 5-substituted-2-anilinoquinolines with 3-(morpholino or 4-methylpiperazin-1-yl)propoxy moiety as broad spectrum antiproliferative agents: Synthesis, cell based assays and kinase screening” (Bioorg Med Chem Lett, 2016)

Experiments:
UACC-62 = experiment: cells; assay type: functional; details: Homo sapiens, time 48 hrs
Description: Growth inhibition of human UACC-62 cells incubated for 48 hrs by sulforhodamine B assay

[1] = test system: Panel renal (Carcinoma cell lines); experiment: cells; assay type: functional; details: Homo sapiens, time 48 hrs
Description: Growth inhibition of human Panel renal (Carcinoma cell lines) incubated for 48 hrs by sulforhodamine B assay

[2] = test system: Panel ovarian (Carcinoma cell lines); experiment: cells; assay type: functional; details: Homo sapiens, time 48 hrs
Description: Growth inhibition of human Panel ovarian (Carcinoma cell lines) incubated for 48 hrs by sulforhodamine B assay

[3] = target: Aurora kinase A (Homo sapiens) (UniProt O14965); experiment: Inhibition of human recombinant Aurora A assessed as residual activity at 10 uM relative to control
[4] = target: Serine/threonine-protein kinase 3 (Homo sapiens) (UniProt Q13188); experiment: Inhibition of recombinant N-terminal His6-tagged human MST2 (2 to end residues) expressed in baculovirus infected Sf21 insect cells at 10 uM relative to control
[5] = target: Epidermal growth factor receptor (Homo sapiens) (UniProt P00533); experiment: Inhibition of N-terminal GST-tagged human EGFR (696 to end residues) expressed in baculovirus-infected Sf21 cells assessed as residual activity at 10 uM relative to control
MDA-MB-468 = experiment: cells; assay type: functional; details: Homo sapiens, time 48 hrs
Description: Growth inhibition of human MDA-MB-468 cells incubated for 48 hrs by sulforhodamine B assay

[6] = target: Proto-oncogene tyrosine-protein kinase receptor Ret (Homo sapiens) (UniProt P07949); experiment: Inhibition of recombinant N-terminal GST-tagged human RET (658 to end residues) expressed in baculovirus infected Sf21 insect cells at 10 uM relative to control
RXF 393 = experiment: cells; assay type: functional; details: Homo sapiens, time 48 hrs
Description: Growth inhibition of human RXF 393 cells incubated for 48 hrs by sulforhodamine B assay

[7] = target: Mitogen-activated protein kinase 8 (Homo sapiens) (UniProt P45983); experiment: Inhibition of N-terminal His-tagged recombinant full length human JNK1alpha1 expressed in Sf21 cells at 10 uM relative to control
KM12 = experiment: cells; assay type: functional; details: Homo sapiens, time 48 hrs
Description: Growth inhibition of human KM12 cells incubated for 48 hrs by sulforhodamine B assay

[8] = test system: Panel breast (Carcinoma cell lines); experiment: cells; assay type: functional; details: Homo sapiens, time 48 hrs
Description: Growth inhibition of human Panel breast (Carcinoma cell lines) incubated for 48 hrs by sulforhodamine B assay

HCT-116 = experiment: cells; assay type: functional; details: Homo sapiens, time 48 hrs
Description: Growth inhibition of human HCT-116 cells incubated for 48 hrs by sulforhodamine B assay

[9] = target: Tyrosine-protein kinase ABL1 (Homo sapiens) (UniProt P00519); experiment: Inhibition of recombinant N-terminal His6-tagged human ABL (27 to end residues) expressed in baculovirus infected Sf21 insect cells assessed as residual activity at 10 uM relative to control
MCF7 = experiment: cells; assay type: functional; details: Homo sapiens, time 48 hrs
Description: Growth inhibition of human MCF7 cells incubated for 48 hrs by sulforhodamine B assay

K562 = experiment: cells; assay type: functional; details: Homo sapiens, time 48 hrs
Description: Growth inhibition of human K562 cells incubated for 48 hrs by sulforhodamine B assay

[10] = test system: PI3-kinase p110-alpha/p85-alpha (Homo sapiens), P27986+P42336 [H1047R]; experiment: Inhibition of p110alpha/p85alpha H1047R mutant (unknown origin) at 10 uM relative to control; assay type: protein-complex assay
[11] = target: Platelet-derived growth factor receptor beta (Homo sapiens) (UniProt P09619); experiment: Inhibition of recombinant N-terminal His6-tagged human PDGFRbeta (557 to end residues) expressed in baculovirus infected Sf21 insect cells at 10 uM relative to control
[12] = target: Cyclin-dependent kinase 2/cyclin E1 (Homo sapiens) (UniProt P24864+P24941); experiment: Inhibition of full length C-terminal His6-tagged human CDK2/full length N-terminal GST-tagged human Cyclin E expressed in baculovirus infected Sf21 insect cells assessed as residual activity at 10 uM relative to control
[13] = target: Rho-associated protein kinase 1 (Homo sapiens) (UniProt Q13464); experiment: Inhibition of auto-activated recombinant N-terminal His6-tagged human ROCK1 (17 to 535 residues) expressed in baculovirus infected Sf21 insect cells at 10 uM incubated in presence of Mg/ATP relative to control
HOP-62 = experiment: cells; assay type: functional; details: Homo sapiens, time 48 hrs
Description: Growth inhibition of human HOP-62 cells incubated for 48 hrs by sulforhodamine B assay

[14] = target: Fibroblast growth factor receptor 1 (Homo sapiens) (UniProt P11362); experiment: Inhibition of human FGFR1 assessed as residual activity at 10 uM relative to control
HT-29 = experiment: cells; assay type: functional; details: Homo sapiens, time 48 hrs
Description: Growth inhibition of human HT-29 cells incubated for 48 hrs by sulforhodamine B assay

[15] = target: Inhibitor of nuclear factor kappa-B kinase subunit alpha (Homo sapiens) (UniProt O15111); experiment: Inhibition of human IKKalpha at 10 uM relative to control
[16] = test system: Serine/threonine-protein kinase B-raf (Homo sapiens), P15056 [V600E]; experiment: Inhibition of recombinant N-terminal GST-tagged human BRAF V599E mutant (417 to 766 residues) expressed in Sf9 cells assessed as residual activity at 10 uM relative to control
[17] = target: Macrophage colony-stimulating factor 1 receptor (Homo sapiens) (UniProt P07333); experiment: Inhibition of recombinant N-terminal His6-tagged human FMS (538 to end residues) expressed in baculovirus infected Sf21 insect cells assessed as residual activity at 10 uM relative to control
LOX IMVI = experiment: cells; assay type: functional; details: Homo sapiens, time 48 hrs
Description: Growth inhibition of human LOX IMVI cells incubated for 48 hrs by sulforhodamine B assay

HOP-92 = experiment: cells; assay type: functional; details: Homo sapiens, time 48 hrs
Description: Growth inhibition of human HOP-92 cells incubated for 48 hrs by sulforhodamine B assay

[18] = target: Receptor-type tyrosine-protein kinase FLT3 (Homo sapiens) (UniProt P36888); experiment: Inhibition of human FLT3 assessed as residual activity at 10 uM relative to control
[19] = test system: Tyrosine-protein kinase ABL1 (Homo sapiens), P00519 [T315I]; experiment: Inhibition of recombinant N-terminal His6-tagged human ABL T315I mutant (27 to end residues) expressed in baculovirus infected Sf21 insect cells assessed as residual activity at 10 uM relative to control
[20] = test system: Panel CNS (Carcinoma cell lines); experiment: cells; assay type: functional; details: Homo sapiens, time 48 hrs
Description: Growth inhibition of human Panel CNS (Carcinoma cell lines) incubated for 48 hrs by sulforhodamine B assay

[21] = test system: Panel melanoma (Carcinoma cell lines); experiment: cells; assay type: functional; details: Homo sapiens, time 48 hrs
Description: Growth inhibition of human Panel melanoma (Carcinoma cell lines) incubated for 48 hrs by sulforhodamine B assay

[22] = test system: PI3-kinase p110-alpha/p85-alpha (Homo sapiens), P27986+P42336 [E542K]; experiment: Inhibition of p110alpha/p85alpha E542K mutant (unknown origin) at 10 uM relative to control; assay type: protein-complex assay
SR = experiment: cells; assay type: functional; details: Homo sapiens, time 48 hrs
Description: Growth inhibition of human SR cells incubated for 48 hrs by sulforhodamine B assay

[23] = Cytotoxicity against human HFF-1 cells assessed as cell growth inhibition at 10 uM by MTT assay relative to control; assay type: cell-based; details: read-out: GI
[24] = target: MAP kinase-activated protein kinase 2 (Homo sapiens) (UniProt P49137); experiment: Inhibition of human MAPKAPK2 expressed in Escherichia coli at 10 uM relative to control
[25] = target: Ephrin type-B receptor 4 (Homo sapiens) (UniProt P54760); experiment: Inhibition of human EphB4 at 10 uM relative to control
[26] = target: ALK tyrosine kinase receptor (Homo sapiens) (UniProt Q9UM73); experiment: Inhibition of N-terminal His6-tagged human recombinant ALK (1058 to end residues) expressed in baculovirus infected Sf21 cells assessed as residual activity at 10 uM relative to control
[27] = read-out: LC50 (the source's name)

Aurora kinase A (Homo sapiens), sequence (O14965 whole entry): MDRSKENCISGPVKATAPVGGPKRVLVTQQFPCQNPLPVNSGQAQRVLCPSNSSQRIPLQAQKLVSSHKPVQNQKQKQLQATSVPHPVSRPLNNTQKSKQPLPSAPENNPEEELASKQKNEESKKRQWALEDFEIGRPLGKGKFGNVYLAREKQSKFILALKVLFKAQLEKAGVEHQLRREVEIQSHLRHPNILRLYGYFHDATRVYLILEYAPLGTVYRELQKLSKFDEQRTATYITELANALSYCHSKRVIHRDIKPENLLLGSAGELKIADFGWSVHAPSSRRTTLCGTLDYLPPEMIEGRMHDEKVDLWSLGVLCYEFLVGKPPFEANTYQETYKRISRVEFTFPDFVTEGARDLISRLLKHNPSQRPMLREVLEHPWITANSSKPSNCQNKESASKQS
Receptor-type tyrosine-protein kinase FLT3 (Homo sapiens), sequence (P36888 whole entry): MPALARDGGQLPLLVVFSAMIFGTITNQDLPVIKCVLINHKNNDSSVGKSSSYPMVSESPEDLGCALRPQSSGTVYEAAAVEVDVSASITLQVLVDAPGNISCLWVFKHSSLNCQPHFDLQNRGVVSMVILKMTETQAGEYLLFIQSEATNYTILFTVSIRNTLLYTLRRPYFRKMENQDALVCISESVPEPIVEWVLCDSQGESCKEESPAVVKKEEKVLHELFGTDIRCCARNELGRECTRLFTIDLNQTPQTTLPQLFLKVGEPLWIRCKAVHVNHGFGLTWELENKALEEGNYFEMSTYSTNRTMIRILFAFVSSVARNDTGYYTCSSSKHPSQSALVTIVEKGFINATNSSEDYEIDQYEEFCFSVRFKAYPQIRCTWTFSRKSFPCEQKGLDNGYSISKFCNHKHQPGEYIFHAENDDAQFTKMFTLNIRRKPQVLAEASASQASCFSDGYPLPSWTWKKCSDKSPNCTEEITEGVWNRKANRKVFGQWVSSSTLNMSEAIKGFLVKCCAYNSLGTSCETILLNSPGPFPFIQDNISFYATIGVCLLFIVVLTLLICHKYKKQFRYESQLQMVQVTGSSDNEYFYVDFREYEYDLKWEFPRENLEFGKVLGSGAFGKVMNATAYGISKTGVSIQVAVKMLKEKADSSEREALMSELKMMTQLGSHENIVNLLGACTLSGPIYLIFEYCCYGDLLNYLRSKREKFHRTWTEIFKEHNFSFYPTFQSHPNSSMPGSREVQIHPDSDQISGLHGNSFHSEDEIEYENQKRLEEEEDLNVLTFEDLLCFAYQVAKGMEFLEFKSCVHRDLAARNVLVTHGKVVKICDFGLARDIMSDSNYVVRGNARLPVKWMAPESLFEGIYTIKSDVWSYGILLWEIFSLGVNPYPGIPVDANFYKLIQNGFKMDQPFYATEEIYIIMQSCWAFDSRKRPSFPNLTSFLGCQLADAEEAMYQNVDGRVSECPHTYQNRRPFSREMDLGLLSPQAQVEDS
Macrophage colony-stimulating factor 1 receptor (Homo sapiens), sequence (P07333 whole entry): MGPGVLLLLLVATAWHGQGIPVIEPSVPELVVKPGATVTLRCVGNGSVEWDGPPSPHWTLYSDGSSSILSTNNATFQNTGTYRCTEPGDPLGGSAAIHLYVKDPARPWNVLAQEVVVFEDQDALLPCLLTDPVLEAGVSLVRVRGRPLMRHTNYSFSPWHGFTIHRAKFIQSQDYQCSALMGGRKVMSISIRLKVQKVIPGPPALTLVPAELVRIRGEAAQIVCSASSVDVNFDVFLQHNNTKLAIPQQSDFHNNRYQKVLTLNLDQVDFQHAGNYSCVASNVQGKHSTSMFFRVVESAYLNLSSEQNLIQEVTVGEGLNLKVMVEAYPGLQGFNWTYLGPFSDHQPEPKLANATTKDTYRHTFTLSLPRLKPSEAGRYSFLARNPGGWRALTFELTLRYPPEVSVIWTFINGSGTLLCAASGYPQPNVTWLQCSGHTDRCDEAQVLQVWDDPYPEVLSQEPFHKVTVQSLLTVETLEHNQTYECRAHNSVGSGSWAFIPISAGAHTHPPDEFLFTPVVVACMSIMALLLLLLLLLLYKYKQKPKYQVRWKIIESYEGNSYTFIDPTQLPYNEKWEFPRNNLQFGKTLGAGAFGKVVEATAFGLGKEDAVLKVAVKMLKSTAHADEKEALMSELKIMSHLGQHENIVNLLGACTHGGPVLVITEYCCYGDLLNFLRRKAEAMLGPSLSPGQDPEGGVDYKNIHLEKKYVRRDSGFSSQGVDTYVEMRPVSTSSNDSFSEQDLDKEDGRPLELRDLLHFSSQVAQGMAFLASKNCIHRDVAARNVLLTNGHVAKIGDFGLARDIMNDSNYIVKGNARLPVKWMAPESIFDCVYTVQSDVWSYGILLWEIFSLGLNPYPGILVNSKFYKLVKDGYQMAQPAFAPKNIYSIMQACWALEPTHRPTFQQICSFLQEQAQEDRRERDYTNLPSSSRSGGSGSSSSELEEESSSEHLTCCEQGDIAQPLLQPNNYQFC
Fibroblast growth factor receptor 1 (Homo sapiens), sequence (P11362 22-822 limits assumed): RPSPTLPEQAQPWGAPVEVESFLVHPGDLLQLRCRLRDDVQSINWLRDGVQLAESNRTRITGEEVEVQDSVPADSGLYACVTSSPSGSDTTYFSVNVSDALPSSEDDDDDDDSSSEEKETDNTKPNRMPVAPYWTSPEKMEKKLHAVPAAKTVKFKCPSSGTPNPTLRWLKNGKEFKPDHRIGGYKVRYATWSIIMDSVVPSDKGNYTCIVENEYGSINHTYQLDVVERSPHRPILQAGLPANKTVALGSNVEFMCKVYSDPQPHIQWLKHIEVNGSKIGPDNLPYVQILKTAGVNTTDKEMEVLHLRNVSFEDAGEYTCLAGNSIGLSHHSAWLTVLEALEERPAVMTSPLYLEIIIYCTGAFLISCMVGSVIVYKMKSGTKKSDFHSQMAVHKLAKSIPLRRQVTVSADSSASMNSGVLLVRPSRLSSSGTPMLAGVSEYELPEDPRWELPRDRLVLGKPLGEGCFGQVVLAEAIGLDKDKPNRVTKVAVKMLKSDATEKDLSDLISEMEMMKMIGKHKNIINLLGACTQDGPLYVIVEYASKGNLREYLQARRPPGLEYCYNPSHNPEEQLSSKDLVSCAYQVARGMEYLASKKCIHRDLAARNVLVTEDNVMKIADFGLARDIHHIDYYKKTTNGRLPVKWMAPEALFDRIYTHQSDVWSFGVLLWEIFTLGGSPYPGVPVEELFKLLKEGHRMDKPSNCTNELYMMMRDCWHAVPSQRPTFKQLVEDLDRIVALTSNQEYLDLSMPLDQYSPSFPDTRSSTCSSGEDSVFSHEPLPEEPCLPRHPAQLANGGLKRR
Proto-oncogene tyrosine-protein kinase receptor Ret (Homo sapiens), sequence (P07949 whole entry): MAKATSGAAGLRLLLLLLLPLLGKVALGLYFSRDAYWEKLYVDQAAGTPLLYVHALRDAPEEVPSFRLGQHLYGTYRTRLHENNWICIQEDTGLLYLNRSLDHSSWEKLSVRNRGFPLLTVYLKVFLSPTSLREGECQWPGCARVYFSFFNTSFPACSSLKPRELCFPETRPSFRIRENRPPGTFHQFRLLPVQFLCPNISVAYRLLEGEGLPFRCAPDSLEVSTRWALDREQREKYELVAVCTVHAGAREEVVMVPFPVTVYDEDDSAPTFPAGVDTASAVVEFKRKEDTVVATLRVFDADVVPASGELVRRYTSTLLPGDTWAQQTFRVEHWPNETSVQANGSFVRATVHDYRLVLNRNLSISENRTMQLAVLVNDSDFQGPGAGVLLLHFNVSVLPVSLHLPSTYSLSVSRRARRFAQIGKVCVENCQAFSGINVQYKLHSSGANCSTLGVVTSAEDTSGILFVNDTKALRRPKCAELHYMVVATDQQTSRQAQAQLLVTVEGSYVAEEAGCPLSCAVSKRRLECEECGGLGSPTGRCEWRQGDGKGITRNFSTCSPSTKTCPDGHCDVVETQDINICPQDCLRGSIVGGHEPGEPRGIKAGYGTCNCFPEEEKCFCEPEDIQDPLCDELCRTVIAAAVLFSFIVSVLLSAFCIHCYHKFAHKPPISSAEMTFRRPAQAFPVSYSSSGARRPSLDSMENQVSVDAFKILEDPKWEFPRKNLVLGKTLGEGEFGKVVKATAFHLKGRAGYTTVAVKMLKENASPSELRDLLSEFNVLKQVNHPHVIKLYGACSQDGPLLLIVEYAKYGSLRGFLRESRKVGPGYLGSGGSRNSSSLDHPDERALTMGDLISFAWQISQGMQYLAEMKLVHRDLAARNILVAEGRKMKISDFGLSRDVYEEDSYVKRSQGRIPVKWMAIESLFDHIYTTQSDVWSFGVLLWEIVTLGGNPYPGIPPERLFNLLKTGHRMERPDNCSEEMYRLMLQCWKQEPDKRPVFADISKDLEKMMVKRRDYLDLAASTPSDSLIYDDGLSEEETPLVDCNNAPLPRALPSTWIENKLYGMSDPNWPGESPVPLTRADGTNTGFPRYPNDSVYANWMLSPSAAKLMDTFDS
Inhibitor of nuclear factor kappa-B kinase subunit alpha (Homo sapiens), sequence (O15111 whole entry, the tested form may be a part): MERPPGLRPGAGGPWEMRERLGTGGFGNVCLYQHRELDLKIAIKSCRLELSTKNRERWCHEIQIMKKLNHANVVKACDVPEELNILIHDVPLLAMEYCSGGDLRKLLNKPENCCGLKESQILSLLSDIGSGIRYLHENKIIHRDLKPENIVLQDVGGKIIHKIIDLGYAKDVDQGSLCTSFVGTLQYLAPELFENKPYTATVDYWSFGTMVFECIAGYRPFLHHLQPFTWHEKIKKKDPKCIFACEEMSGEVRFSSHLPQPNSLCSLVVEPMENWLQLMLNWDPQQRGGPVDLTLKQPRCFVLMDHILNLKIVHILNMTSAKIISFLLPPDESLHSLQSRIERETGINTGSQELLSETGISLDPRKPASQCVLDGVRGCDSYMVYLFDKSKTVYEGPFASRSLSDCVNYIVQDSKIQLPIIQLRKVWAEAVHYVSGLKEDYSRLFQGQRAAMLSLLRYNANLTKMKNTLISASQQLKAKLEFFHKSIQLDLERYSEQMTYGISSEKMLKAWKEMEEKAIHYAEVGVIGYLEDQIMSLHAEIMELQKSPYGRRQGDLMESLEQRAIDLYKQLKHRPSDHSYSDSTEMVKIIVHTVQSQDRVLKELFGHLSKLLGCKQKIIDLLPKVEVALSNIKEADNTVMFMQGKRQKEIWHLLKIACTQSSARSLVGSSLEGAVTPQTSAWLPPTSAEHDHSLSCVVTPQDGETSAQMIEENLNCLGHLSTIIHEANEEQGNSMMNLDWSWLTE

## CN1CCN(CCCOc2cccc3nc(Nc4ccc(Cl)c(C(F)(F)F)c4)ccc23)CC1
UACC-62
  GI50: 1720 nM
[1]
  GI50: 1620 nM
  LC50 (lethal concentration 50%): 6460 nM
  TGI: 3230 nM
[2]
  GI50: 1980 nM
  LC50: 10300 nM
  TGI: 4180 nM
[3]
  Activity: < 60%
[4]
  inhibition: < 60%
[5]
  Activity: < 60%
MDA-MB-468
  GI50: 1600 nM
[6]
  inhibition: < 60%
RXF 393
  GI50: 1630 nM
[7]
  inhibition: < 60%
KM12
  GI50: 1740 nM
[8]
  GI50: 1690 nM
  TGI: 3630 nM
[8]; [27]
  CC50: 11200 nM
HCT-116
  GI50: 1500 nM
[9]
  Activity: < 60%
MCF7
  GI50: 1410 nM
K562
  GI50: 1620 nM
[10]
  inhibition: < 60%
[11]
  inhibition: < 60%
[12]
  Activity: < 60%
[13]
  inhibition: < 60%
HOP-62
  GI50: 1700 nM
[14]
  Activity: < 60%
HT-29
  GI50: 1120 nM
[15]
  inhibition: < 60%
[16]
  Activity: < 60%
[17]
  Activity: < 60%
LOX IMVI
  GI50: 1560 nM
HOP-92
  GI50: 1020 nM
[18]
  Activity: 66%
[19]
  Activity: < 60%
[20]
  GI50: 1650 nM
  TGI: 3670 nM
[20]; [27]
  CC50: 6980 nM
[21]
  GI50: 1710 nM
  LC50: 6700 nM
  TGI: 3380 nM
[22]
  inhibition: < 60%
SR
  GI50: 540 nM
[23]
  inhibition at 10 µM: 37.1%
[24]
  inhibition: < 60%
[25]
  inhibition: < 60%
[26]
  Activity: < 60%
